# Patent publication US20240400553A1, “AMINE BASED MATRIPTASE 2 INHIBITORS AND USES THEREOF” (Disc Medicine, Inc., priority 2023, published 2024)
# Where two headings read alike, the source gives them in different places.
# Biological target: T1, Human Recombinant Matriptase 2 (Homo sapiens, UniProt Q8IU80)
# T1 construct: made in house
# T1 sequence (Q8IU80 1-811): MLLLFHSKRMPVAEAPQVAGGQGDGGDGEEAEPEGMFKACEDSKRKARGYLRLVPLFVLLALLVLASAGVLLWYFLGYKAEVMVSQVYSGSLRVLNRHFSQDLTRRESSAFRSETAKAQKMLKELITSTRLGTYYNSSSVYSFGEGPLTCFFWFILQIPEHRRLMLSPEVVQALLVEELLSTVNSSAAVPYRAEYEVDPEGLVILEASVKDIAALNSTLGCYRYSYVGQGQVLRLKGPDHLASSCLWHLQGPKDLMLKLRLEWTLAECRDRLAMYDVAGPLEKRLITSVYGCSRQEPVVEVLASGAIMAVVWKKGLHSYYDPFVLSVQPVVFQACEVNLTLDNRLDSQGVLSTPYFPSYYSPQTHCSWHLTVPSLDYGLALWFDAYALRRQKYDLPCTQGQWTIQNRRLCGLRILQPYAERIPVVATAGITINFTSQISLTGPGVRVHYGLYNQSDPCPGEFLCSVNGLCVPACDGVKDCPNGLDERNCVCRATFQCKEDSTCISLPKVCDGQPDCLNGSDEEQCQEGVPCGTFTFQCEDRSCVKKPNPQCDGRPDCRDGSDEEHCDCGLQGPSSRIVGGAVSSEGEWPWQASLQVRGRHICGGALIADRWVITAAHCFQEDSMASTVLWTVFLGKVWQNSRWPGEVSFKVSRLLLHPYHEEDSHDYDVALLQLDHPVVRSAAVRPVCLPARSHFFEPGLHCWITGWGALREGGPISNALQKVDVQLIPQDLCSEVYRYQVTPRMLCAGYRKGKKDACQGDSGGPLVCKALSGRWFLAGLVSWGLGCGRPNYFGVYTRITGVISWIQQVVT
# Assay: Matriptase 2 inhibition, fluorescence based assay (Method I)
# Type: biochemical
# Protocol: • Method I: Test compounds were evaluated for their potential to inhibit Human Recombinant Matriptase 2 (in-house) using fluorescence based assay. The concentration of Recombinant Matriptase 2 and the substrate used in the assay was: 3.5 nM (In-house Matriptase 2) and 62 μM (Boc-Gln-Ala-Arg-7-amido-4-methyl coumarin hydrobromide −Cat log: I-1550 from Bachem) respectively. The assay buffer used was 50 mM TRIS pH 7.5, 150 mM NaCl, 0.01% Gelatin TCL059 Himedia). The assay was performed using 384 well black flat bottom plate from grenier (Cat log: 781076) at 25° C. The enzyme and compound were preincubated for 30 mins, the plate was read at 60 mins after substrate addition at wavelength Ex: 360/Em: 480 nm. The final assay volume was 20 μl. A stock solution of compounds was initially prepared in DMSO and appropriate dilutions were made and IC50 was determined for all the compounds (final DMSO conc in the assay was 1%). All the measurements were carried out using the Spectramax M5, Molecular devices.
# To determine Ki values, dose response curves were generated by plotting percentage inhibition as a function of inhibitor concentration and the data was fitted to sigmoidal non-linear regression equation (variable slope) using Graph Pad prism software V8.
# [1] = Table A, Ki of Matriptase-2 given as class symbols, read-out: Mat-2 Ki
# [2] = Table A, Ki of Matriptase-2, read-out: Mat-2 Ki
# [3] = Table B, Human Recombinant Matriptase 2, 3.5 nM enzyme, 62 μM substrate, 30 mins preincubation, read-out: Mean Ki
SMILES,Ki [1],other results
"CN1CCC(C)(COC(=O)c2cc3ccc(CN)nc3n2Cc2cc(NS(=O)(=O)Cc3ccccc3)cc3ccccc23)CC1 [Compound 10, (1,4-dimethylpiperidin-4-yl)methyl 6-(amino-methyl)-1-{[3-(phenyl-methanesulfonamido)-naphthalen-1-yl]meth-yl}-1H-pyrrolo[2,3-b]-pyridine-2-carboxylate]",,Ki [2]: ≤ 100 nM
CN1CCC(COC(=O)c2cc3ccc(CN)nc3n2Cc2cc(NS(=O)(=O)Cc3ccccc3)c3ccccc3c2)CC1 [Compound 2.16],,Ki [3]: 100 to 500 nM
"CN(C)CCOCCOC(=O)c1cc2ccc(CN)nc2n1Cc1cc(NS(=O)(=O)Cc2ccccc2)cc2ccccc12 [Compound 58, 2-[2-(dimethylamino)-ethoxy]ethyl 6-(amino-methyl)-1-{[3-(phenyl-methanesulfonamido)-naphthalen-1-yl]methyl}-1H-pyrrolo[2,3-b]pyr-idine-2-carboxylate]",,Ki [2]: ≤ 100 nM
"NCc1ccc2cc(C(=O)OC[C@H]3CNCCO3)n(Cc3cc(NS(=O)(=O)Cc4ccsc4)cc4ccccc34)c2n1 [Compound 170, [(2R)-morpholin-2-yl]-methyl 6-(aminomethyl)-1-({3-[(thiophen-3-yl)-methanesulfonamido]-naphthalen-1-yl}meth-yl)-1H-pyrrolo[2,3-b]-pyridine-2-carboxylate]",,Ki [2]: ≤ 100 nM
CCOC(=O)c1cc2ccc(CN)nc2n1Cc1cc(NS(=O)(=O)Cc2ccsc2)cc2ccccc12 [Compound 291],100 to 500 nM,
NCc1ccc2cc(C(=O)NCc3ccc(N)cc3)n(Cc3cc(NS(=O)(=O)Cc4ccccc4)cc4ccccc34)c2n1 [Compound 2.24],,Ki [3]: ≤ 100 nM
"Cc1oc(=O)oc1COC(=O)c1cc2ccc(CN)nc2n1Cc1cc(NS(=O)(=O)Cc2ccsc2)cc2ccccc12 [Compound 178, (5-methyl-2-oxo-2H-1,3-dioxol-4-yl)methyl 6-(aminomethyl)-1-({3-[(thiophen-3-yl)methane-sulfonamido]naphthalen-1-yl}methyl)-1H-pyr-rolo[2,3-b]pyridine-2-carboxylate]",,Ki [2]: 100 to 500 nM
Cc1ccccc1CS(=O)(=O)Nc1cc(Cn2c(C(=O)OCC3CCN(C)CC3)cc3ccc(CN)nc32)c2ccccc2c1 [Compound 204],≤ 100 nM,
"NCc1ccc2cc(C(=O)OCCNC(N)=O)n(Cc3cc(NS(=O)(=O)Cc4ccccc4)cc4ccccc34)c2n1 [Compound 94, 2-(carbamoylamino)-ethyl 6-(aminomethyl)-1-{[3-(phenylmethanesul-fonamido)naphthalen-1-yl]methyl}-1H-pyrrolo-[2,3-b]pyridine-2-carbox-ylate]",,Ki [2]: 100 to 500 nM
CN(C)CC(=O)Nc1nnc(-c2cc3ccc(CN)nc3n2Cc2cc(NS(=O)(=O)Cc3ccccc3)cc3ccccc23)o1 [Compound 349],≤ 100 nM,
"C[C@@H](c1ccccc1)S(=O)(=O)Nc1cc(Cn2c(C(=O)OCC3CCN(C)CC3)cc3ccc(CN)cc32)c2ccccc2c1 [Compound 387, (1-methylpiperidin-4-yl)-methyl 6-(aminomethyl)-1-({3-[(1S)-1-phenyl-ethanesulfonamido]-naphthalen-1-yl}methyl)-1H-indole-2-carboxylate]",100 to 500 nM,
"CC(c1ccccc1)S(=O)(=O)Nc1cc(Cn2c(C(=O)OCC3CCN(C)CC3)cc3ccc(CN)cc32)c2ccccc2c1 (racemic) [Compound 380, (1-methylpiperidin-4-yl)-methyl 6-(aminomethyl)-1-{[3-(1-phenylethane-sulfonamido)naphthalen-1-yl]methyl}-1H-indole-2-carboxylate]",≤ 100 nM,
CN1CC(CCOC(=O)c2cc3ccc(CN)nc3n2Cc2cc(NS(=O)(=O)Cc3ccsc3)cc3ccccc23)CC1=O (stereo not shown) [Compound 2.6],,Ki [3]: ≤ 100 nM
"NCCOC(=O)c1cc2ccc(CN)nc2n1Cc1cc(NS(=O)(=O)Cc2ccccc2)cc2ccccc12 [Compound 91, 2-aminoethyl 6-(amino-methyl)-1-{[3-(phenyl-methanesulfonamido)naphthalen-1-yl]methyl}-1H-pyrrolo[2,3-b]pyr-idine-2-carboxylate]",,Ki [2]: 100 to 500 nM
"CC(=O)N(C)CCOC(=O)c1cc2ccc(CN)nc2n1Cc1cc(NS(=O)(=O)Cc2ccccc2)cc2ccccc12 [Compound 141, 2-(N-methylacetamido)-ethyl 6-(aminomethyl)-1-{[3-(phenylmethane-sulfonamido)naphthalen-1-yl]methyl}-1H-pyrrolo-[2,3-b]pyridine-2-car-boxylate]",,Ki [2]: 100 to 500 nM
"CN1CCC(COC(=O)c2cc3ccc(CN)nc3n2Cc2cc(NS(=O)(=O)Cc3ccccc3C(F)(F)F)cc3ccccc23)CC1 [Compound 209, (1-methylpiperidin-4-yl)-methyl 6-(aminomethyl)-1-[(3-{[2-(trifluorometh-yl)phenyl]methanesul-fonamido}naphthalen-1-yl)methyl]-1H-pyrrolo-[2,3-b]pyridine-2-car-boxylate]",≤ 100 nM,

# Further lines, with some results ahead:
Ki [1],SMILES,other results
500 to 3000 nM,"C[C@@H]1CN(C(=O)Nc2cc(Cn3c(C(=O)O)cc4ccc(CN)nc43)c3ccccc3c2)CCN1 [Compound 295, 6-(aminomethyl)-1-[(3-{[(3R)-3-methylpipera-zine-1-carbonyl]amino}-naphthalen-1-yl)methyl]-1H-pyrrolo[2,3-b]pyr-idine-2-carboxylic acid]",
100 to 500 nM,"CN1CCC[C@@H]1COC(=O)Nc1cc(Cn2c(C(=O)O)cc3ccc(CN)nc32)c2ccccc2c1 [Compound 336, 6-(aminomethyl)-1-({3-[({[(2R)-1-methylpyr-rolidin-2-yl]methoxy}-carbonyl)amino]naph-thalen-1-yl}methyl)-1H-pyrrolo[2,3-b]pyr-idine-2-carboxylic acid]",
100 to 500 nM,"NCc1ccc2cc(C(=O)O)n(Cc3cc(NS(=O)(=O)Cc4c(F)cccc4F)cc4ccccc34)c2n1 [Compound 246, 6-(aminomethyl)-1-({3-[(2,6-difluorophenyl)-methanesulfonamido]-naphthalen-1-yl}meth-yl)-1H-pyrrolo[2,3-b]-pyridine-2-carboxylic acid]",
100 to 500 nM,"NCc1ccc2cc(C(=O)O)n(Cc3cc(NS(=O)(=O)Cc4cccnc4)cc4ccccc34)c2n1 [Compound 242, 6-(aminomethyl)-1-({3-[(pyridin-3-yl)methane-sulfonamido]naphthalen-1-yl}methyl)-1H-pyr-rolo[2,3-b]pyridine-2-carboxylic acid]",
100 to 500 nM,"CN1CCC[C@H]1COC(=O)Nc1cc(Cn2c(C(=O)O)cc3ccc(CN)nc32)c2ccccc2c1 [Compound 334, 6-(aminomethyl)-1-({3-[({[(2S)-1-methylpyr-rolidin-2-yl]methoxy}-carbonyl)amino]naph-thalen-1-yl}methyl)-1H-pyrrolo[2,3-b]pyr-idine-2-carboxylic acid]",
100 to 500 nM,"CN1CCO[C@@H](COC(=O)Nc2cc(Cn3c(C(=O)O)cc4ccc(CN)nc43)c3ccccc3c2)C1 (racemic) [Compound 337, 6-(aminomethyl)-1-{[3-({[(4-methylmorpholin-2-yl)methoxy]carbon-yl}amino)naphthalen-1-yl]methyl}-1H-pyrrolo-[2,3-b]pyridine-2-car-boxylic acid]",
500 to 3000 nM,C[C@H]1CN(C(=O)Nc2cc(Cn3c(C(=O)O)cc4ccc(CN)nc43)c3ccccc3c2)CCN1 [Compound 305],
500 to 3000 nM,"NCc1ccc2cc(C(=O)O)n(Cc3cc(NC(=O)N4CCC(C(F)(F)F)CC4)cc4ccccc34)c2n1 [Compound 298, 6-(aminomethyl)-1-[(3-{[4-(trifluoromethyl)-piperidine-1-carbonyl]-amino}naphthalen-1-yl)-methyl]-1H-pyrrolo[2,3-b]pyridine-2-carboxylic acid]",
≤ 100 nM,"CN1CCC(COC(=O)c2cc3ccc(CN)nc3n2Cc2cc(NS(=O)(=O)Cc3ccc(F)cc3)cc3ccccc23)CC1 [Compound 206, (1-methylpiperidin-4-yl)-methyl 6-(aminomethyl)-1-({3-[(4-fluorophenyl)-methanesulfonamido]-naphthalen-1-yl}meth-yl)-1H-pyrrolo[2,3-b]-pyridine-2-carboxylate]",
